Columns and labels:
PI3K-alpha = molecular target: T1, PI3K-alpha (Homo sapiens, UniProt P42336); assay: HTRF PI3K biochemical assay, alpha isoform; conditions: ratio PI3K-alpha IC50 value / PI3K-delta IC50 value
T1 construct: purchased Upstate; Millipore 14-602

PI3K-delta = molecular target: T2, PI3K-delta (Homo sapiens, UniProt O00329); assay: HTRF PI3K biochemical assay, delta isoform; conditions: form screened (neutral or TFA salt) given, read-out: PI3Kdelta IC50
T2 construct: purchased Upstate; Millipore 14-604
T2 sequence (O00329 whole entry, canonical isoform): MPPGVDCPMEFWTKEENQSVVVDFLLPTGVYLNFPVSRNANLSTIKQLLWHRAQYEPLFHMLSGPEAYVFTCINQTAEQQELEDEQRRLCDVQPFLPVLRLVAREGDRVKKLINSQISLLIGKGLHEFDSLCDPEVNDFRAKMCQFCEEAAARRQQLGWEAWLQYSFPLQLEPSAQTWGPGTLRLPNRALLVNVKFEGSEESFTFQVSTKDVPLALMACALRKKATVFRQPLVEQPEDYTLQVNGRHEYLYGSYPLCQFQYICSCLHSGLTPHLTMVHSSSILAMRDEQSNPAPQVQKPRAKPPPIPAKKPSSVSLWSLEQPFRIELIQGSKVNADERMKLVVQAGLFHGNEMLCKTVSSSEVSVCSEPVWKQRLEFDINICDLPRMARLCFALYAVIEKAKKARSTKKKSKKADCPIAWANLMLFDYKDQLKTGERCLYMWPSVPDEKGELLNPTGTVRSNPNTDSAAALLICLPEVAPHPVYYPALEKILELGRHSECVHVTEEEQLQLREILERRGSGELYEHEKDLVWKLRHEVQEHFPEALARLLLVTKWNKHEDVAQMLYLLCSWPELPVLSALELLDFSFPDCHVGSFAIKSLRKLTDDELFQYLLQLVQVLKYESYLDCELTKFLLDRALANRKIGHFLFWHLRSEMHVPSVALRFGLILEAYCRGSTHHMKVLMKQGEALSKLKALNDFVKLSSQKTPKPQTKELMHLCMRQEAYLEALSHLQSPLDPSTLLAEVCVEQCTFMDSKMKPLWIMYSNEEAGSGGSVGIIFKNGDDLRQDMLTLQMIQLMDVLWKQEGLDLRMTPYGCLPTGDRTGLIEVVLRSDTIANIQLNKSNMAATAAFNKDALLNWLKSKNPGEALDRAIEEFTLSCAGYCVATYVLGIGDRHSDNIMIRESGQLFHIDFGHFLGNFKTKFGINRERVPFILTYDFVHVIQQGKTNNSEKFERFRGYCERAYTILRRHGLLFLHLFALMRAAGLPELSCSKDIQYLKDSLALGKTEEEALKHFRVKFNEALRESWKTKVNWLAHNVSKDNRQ
T2 sequence (P27986 whole entry partner, canonical isoform): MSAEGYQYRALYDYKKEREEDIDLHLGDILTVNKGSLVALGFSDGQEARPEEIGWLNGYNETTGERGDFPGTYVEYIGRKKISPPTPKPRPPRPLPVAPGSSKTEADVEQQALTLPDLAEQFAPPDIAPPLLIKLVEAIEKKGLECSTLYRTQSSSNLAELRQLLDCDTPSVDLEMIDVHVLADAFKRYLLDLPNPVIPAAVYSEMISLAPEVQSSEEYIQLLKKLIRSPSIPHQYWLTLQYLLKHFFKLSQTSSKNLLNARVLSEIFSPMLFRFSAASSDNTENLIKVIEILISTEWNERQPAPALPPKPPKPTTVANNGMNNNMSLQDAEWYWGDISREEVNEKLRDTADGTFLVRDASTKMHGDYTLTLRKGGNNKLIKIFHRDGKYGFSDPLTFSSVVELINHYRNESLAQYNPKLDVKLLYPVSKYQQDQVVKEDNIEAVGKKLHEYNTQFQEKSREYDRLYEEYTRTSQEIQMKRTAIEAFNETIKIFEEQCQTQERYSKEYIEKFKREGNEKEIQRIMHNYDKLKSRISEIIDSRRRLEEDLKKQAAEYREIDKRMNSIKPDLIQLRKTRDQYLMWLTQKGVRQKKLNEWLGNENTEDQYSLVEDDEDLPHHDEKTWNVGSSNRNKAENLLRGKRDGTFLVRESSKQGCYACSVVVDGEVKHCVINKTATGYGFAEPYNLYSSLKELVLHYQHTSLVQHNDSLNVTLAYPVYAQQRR

T1 sequence (P42336 whole entry, canonical isoform): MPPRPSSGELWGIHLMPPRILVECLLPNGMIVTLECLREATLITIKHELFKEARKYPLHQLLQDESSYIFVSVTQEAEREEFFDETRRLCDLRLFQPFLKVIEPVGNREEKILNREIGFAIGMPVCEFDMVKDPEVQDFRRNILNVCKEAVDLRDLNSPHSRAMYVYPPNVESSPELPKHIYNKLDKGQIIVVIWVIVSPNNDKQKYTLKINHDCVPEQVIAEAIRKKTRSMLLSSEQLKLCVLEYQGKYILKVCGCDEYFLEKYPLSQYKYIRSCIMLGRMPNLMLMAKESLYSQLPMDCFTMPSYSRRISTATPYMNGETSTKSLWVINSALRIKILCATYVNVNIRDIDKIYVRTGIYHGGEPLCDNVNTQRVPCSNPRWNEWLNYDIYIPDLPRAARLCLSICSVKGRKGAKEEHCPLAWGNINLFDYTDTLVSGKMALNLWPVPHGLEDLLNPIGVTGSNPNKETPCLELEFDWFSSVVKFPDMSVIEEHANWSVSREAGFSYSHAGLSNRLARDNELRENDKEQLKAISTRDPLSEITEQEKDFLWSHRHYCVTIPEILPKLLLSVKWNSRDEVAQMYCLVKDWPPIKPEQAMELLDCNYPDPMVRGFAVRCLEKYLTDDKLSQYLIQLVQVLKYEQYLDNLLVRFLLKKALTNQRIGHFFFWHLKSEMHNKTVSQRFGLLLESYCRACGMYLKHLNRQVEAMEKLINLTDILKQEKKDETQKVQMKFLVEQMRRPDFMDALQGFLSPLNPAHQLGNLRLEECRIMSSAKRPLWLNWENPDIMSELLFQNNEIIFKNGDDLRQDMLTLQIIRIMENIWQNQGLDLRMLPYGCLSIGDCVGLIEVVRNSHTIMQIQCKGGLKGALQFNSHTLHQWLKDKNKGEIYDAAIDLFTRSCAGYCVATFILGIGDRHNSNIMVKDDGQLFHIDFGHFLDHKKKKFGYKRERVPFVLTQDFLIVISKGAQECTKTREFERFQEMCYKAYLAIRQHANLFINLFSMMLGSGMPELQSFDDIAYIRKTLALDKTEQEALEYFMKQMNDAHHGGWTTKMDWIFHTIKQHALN
T1 sequence (P27986 whole entry partner, canonical isoform): as the sequence (P27986 whole entry partner, canonical isoform) above

In the case of `CCn1c(-c2cnc(OC)c(C)c2)nc2c(N(C)[C@H]3CCN(C(=O)OC(C)(C)C)C3)ncnc21` [Compound 1-4, (S)-tert-butyl 3-((9-ethyl-8-(6-methoxy-5-methylpyridin-3-yl)-9H-purin-6-yl)(methyl)amino)pyrrolidine-1-carboxylate], the “Selectivity versus PI3Kalpha” value (PI3K-alpha) is reported as >10 and the IC50 (PI3K-delta) is reported as 1.7 nM.

In the case of `CCn1c(-c2cnc(OC)c(C)c2)nc2c(N[C@H]3CCN(C(=O)OC(C)(C)C)C3)ncnc21` [Compound 1-5, (S)-tert-butyl 3-((9-ethyl-8-(6-methoxy-5-methylpyridin-3-yl)-9H-purin-6-yl)amino)pyrrolidine-1-carboxylate], the “Selectivity versus PI3Kalpha” value (PI3K-alpha) is reported as >10 and the IC50 (PI3K-delta) is reported as < 1 nM.

`CCn1c(-c2cnc(C(C)(C)C)s2)nc2c(N[C@H]3CCN(C(=O)OC(C)(C)C)C3)ncnc21` [Compound 1-6, (S)-tert-butyl 3-((8-(2-(tert-butyl)thiazol-5-yl)-9-ethyl-9H-purin-6-yl)amino)pyrrolidine-1-carboxylate] was tested, and the “Selectivity versus PI3Kalpha” value (PI3K-alpha) was 8 and the IC50 (PI3K-delta) was < 1 nM.

For `CCn1c(-c2cnc(C(C)(C)C)s2)nc2c(N(C)[C@H]3CCN(C(=O)OC(C)(C)C)C3)ncnc21` [Compound 1-7, (S)-tert-butyl 3-((8-(2-(tert-butyl)thiazol-5-yl)-9-ethyl-9H-purin-6-yl)(methyl)amino)pyrrolidine-1-carboxylate], the “Selectivity versus PI3Kalpha” value (PI3K-alpha) was >10 and the IC50 (PI3K-delta) was 6.7 nM.

With `COc1ncc(-c2nc3c(N[C@H]4CCN(C(=O)OC(C)(C)C)C4)ncnc3n2C)cc1C` [Compound 1-8, (S)-tert-butyl 3-((8-(6-methoxy-5-methylpyridin-3-yl)-9-methyl-9H-purin-6-yl)amino)pyrrolidine-1-carboxylate] the “Selectivity versus PI3Kalpha” value (PI3K-alpha) was >10 and the IC50 (PI3K-delta) was 1.7 nM.

For `Cn1c(-c2cnc(C(C)(C)C)s2)nc2c(N[C@H]3CCN(C(=O)OC(C)(C)C)C3)ncnc21` [Compound 1-9, (S)-tert-butyl 3-((8-(2-(tert-butyl)thiazol-5-yl)-9-methyl-9H-purin-6-yl)amino)pyrrolidine-1-carboxylate], the “Selectivity versus PI3Kalpha” value (PI3K-alpha) was >10 and the IC50 (PI3K-delta) was < 1 nM.

For `CCn1ncc(-c2nc3c(NC4CN(C(=O)OC(C)(C)C)C4)ncnc3n2C)c1C` [Compound 1-10, tert-butyl 3-((8-(1-ethyl-5-methyl-1H-pyrazol-4-yl)-9-methyl-9H-purin-6-yl)amino)azetidine-1-carboxylate], the “Selectivity versus PI3Kalpha” value (PI3K-alpha) was >10 and the IC50 (PI3K-delta) was 15 nM.

In the case of `CCn1ncc(-c2nc3c(N[C@@H]4CCCN(C(=O)OC(C)(C)C)C4)ncnc3n2C)c1C` [Compound 1-11, (R)-tert-butyl 3-((8-(1-ethyl-5-methyl-1H-pyrazol-4-yl)-9-methyl-9H-purin-6-yl)amino)piperidine-1-carboxylate], the “Selectivity versus PI3Kalpha” value (PI3K-alpha) is reported as >10 and the IC50 (PI3K-delta) is reported as 250 nM.

In the case of `CCn1ncc(-c2nc3c(N[C@H]4CCCN(C(=O)OC(C)(C)C)C4)ncnc3n2C)c1C` [Compound 1-12, (S)-tert-butyl 3-((8-(1-ethyl-5-methyl-1H-pyrazol-4-yl)-9-methyl-9H-purin-6-yl)amino)piperidine-1-carboxylate], the “Selectivity versus PI3Kalpha” value (PI3K-alpha) is reported as >10 and the IC50 (PI3K-delta) is reported as 19 nM.

With `CCn1c(-c2cnc(C)nc2)nc2c(N[C@H]3CCN(C(=O)OC(C)(C)C)C3)ncnc21` [Compound 1-13, (S)-tert-butyl 3-((9-ethyl-8-(2-methylpyrimidin-5-yl)-9H-purin-6-yl)amino)pyrrolidine-1-carboxylate] the “Selectivity versus PI3Kalpha” value (PI3K-alpha) was >10 and the IC50 (PI3K-delta) was < 1 nM.

`CCn1ncc(-c2nc3c(N[C@H]4CCN(C(=O)OC(C)(C)C)C4)ncnc3n2CC)c1C` [Compound 1-14, tert-butyl (3S)-3-{[9-ethyl-8-(1-ethyl-5-methyl-1H-pyrazol-4-yl)-9H-purin-6-yl]amino}pyrrolidine-1-carboxylate] was tested, and the “Selectivity versus PI3Kalpha” value (PI3K-alpha) was >10 and the IC50 (PI3K-delta) was 1.1 nM.

In the case of `CCn1c(-c2cnc(C)nc2)nc2c(N[C@H]3CCCN(C(=O)OC(C)(C)C)C3)ncnc21` [Compound 1-16, tert-butyl (3S)-3-{[9-ethyl-8-(2-methylpyrimidin-5-yl)-9H-purin-6-yl]amino}piperidine-1-carboxylate], the “Selectivity versus PI3Kalpha” value (PI3K-alpha) is reported as >10 and the IC50 (PI3K-delta) is reported as 49 nM.

`CCn1c(-c2cnc(C)nc2)nc2c(N[C@H]3C[C@H](C(=O)OC)N(C(=O)OC(C)(C)C)C3)ncnc21` [Compound 1-17, 1-tert-butyl 2-methyl (2R,4S)-4-{[9-ethyl-8-(2-methylpyrimidin-5-yl)-9H-purin-6-yl]amino}pyrrolidine-1,2-dicarboxylate] was tested, and the “Selectivity versus PI3Kalpha” value (PI3K-alpha) was >10 and the IC50 (PI3K-delta) was 8.8 nM.

For `CCn1c(-c2cnc(C)nc2)nc2c(N[C@H]3C[C@H](C(=O)O)N(C(=O)OC(C)(C)C)C3)ncnc21` [Compound 1-18, (4S)-1-(tert-butoxycarbonyl)-4-{[9-ethyl-8-(2-methylpyrimidin-5-yl)-9H-purin-6-yl]amino}-D-proline], the “Selectivity versus PI3Kalpha” value (PI3K-alpha) was >10 and the IC50 (PI3K-delta) was 2 nM.

`CCn1c(-c2cnc(C)nc2)nc2c(N[C@H]3C[C@@H](C(=O)OC)N(C(=O)OC(C)(C)C)C3)ncnc21` [Compound 1-19, 1-tert-butyl 2-methyl (2S,4S)-4-{[9-ethyl-8-(2-methylpyrimidin-5-yl)-9H-purin-6-yl]amino}pyrrolidine-1,2-dicarboxylate] was tested, and the “Selectivity versus PI3Kalpha” value (PI3K-alpha) was >10 and the IC50 (PI3K-delta) was 69 nM.

In the case of `CCn1c(-c2cnc(C)nc2)nc2c(N[C@H]3C[C@H](CO)N(C(=O)OC(C)(C)C)C3)ncnc21` [Compound 1-20, tert-butyl (2R,4S)-4-{[9-ethyl-8-(2-methylpyrimidin-5-yl)-9H-purin-6-yl]amino}-2-(hydroxymethyl)pyrrolidine-1-carboxylate], the “Selectivity versus PI3Kalpha” value (PI3K-alpha) is reported as >10 and the IC50 (PI3K-delta) is reported as 12 nM.

With `CCn1c(-c2ccc(C(F)(F)F)nc2)nc2c(N[C@H]3CCN(C(=O)OC(C)(C)C)C3)ncnc21` [Compound 1-22, tert-butyl (3S)-3-({9-ethyl-8-[6-(trifluoromethyl)pyridin-3-yl]-9H-purin-6-yl}amino)pyrrolidine-1-carboxylate] the “Selectivity versus PI3Kalpha” value (PI3K-alpha) was >10 and the IC50 (PI3K-delta) was < 1 nM.

With `CCn1c(-c2ccc(OC)nc2)nc2c(N[C@H]3CCN(C(=O)OC(C)(C)C)C3)ncnc21` [Compound 1-23, tert-butyl (3S)-3-{[9-ethyl-8-(6-methoxypyridin-3-yl)-9H-purin-6-yl]amino}pyrrolidine-1-carboxylate] the “Selectivity versus PI3Kalpha” value (PI3K-alpha) was >10 and the IC50 (PI3K-delta) was < 1 nM.

In the case of `CCn1c(-c2ccc(C(F)(F)F)cc2)nc2c(N[C@H]3CCN(C(=O)OC(C)(C)C)C3)ncnc21` [Compound 1-24, tert-butyl (3S)-3-({9-ethyl-8-[4-(trifluoromethyl)phenyl]-9H-purin-6-yl}amino)pyrrolidine-1-carboxylate], the “Selectivity versus PI3Kalpha” value (PI3K-alpha) is reported as >10 and the IC50 (PI3K-delta) is reported as 1.5 nM.

With `CCC(=O)N1CC[C@@H](Nc2ncnc3c2nc(-c2cnn(CC)c2C)n3C)C1` [Compound 2-1, 8-(1-ethyl-5-methyl-1H-pyrazol-4-yl)-9-methyl-N-[(3R)-1-propanoylpyrrolidin-3-yl]-9H-purin-6-amine] the “Selectivity versus PI3Kalpha” value (PI3K-alpha) was >10 and the IC50 (PI3K-delta) was 32 nM.

With `CCC(=O)N1CC[C@H](Nc2ncnc3c2nc(-c2cnn(CC)c2C)n3C)C1` [Compound 2-3, (S)-1-(3-((8-(1-ethyl-5-methyl-1H-pyrazol-4-yl)-9-methyl-9H-purin-6-yl)amino)pyrrolidin-1-yl)propan-1-one] the “Selectivity versus PI3Kalpha” value (PI3K-alpha) was >10 and the IC50 (PI3K-delta) was < 1 nM.

In the case of `CCn1ncc(-c2nc3c(N[C@H]4CCN(C(=O)C5CCOCC5)C4)ncnc3n2C)c1C` [Compound 2-4, 8-(1-ethyl-5-methyl-1H-pyrazol-4-yl)-9-methyl-N-[(3S)-1-(tetrahydro-2H-pyran-4-ylcarbonyl)pyrrolidin-3-yl]-9H-purin-6-amine], the “Selectivity versus PI3Kalpha” value (PI3K-alpha) is reported as >10 and the IC50 (PI3K-delta) is reported as < 1 nM.

With `CCn1ncc(-c2nc3c(N[C@H]4CCN(C(=O)c5nc(C)oc5C)C4)ncnc3n2C)c1C` [Compound 2-5, N-{(3S)-1-[(2,5-dimethyl-1,3-oxazol-4-yl)carbonyl]pyrrolidin-3-yl}-8-(1-ethyl-5-methyl-1H-pyrazol-4-yl)-9-methyl-9H-purin-6-amine] the “Selectivity versus PI3Kalpha” value (PI3K-alpha) was >10 and the IC50 (PI3K-delta) was 1.5 nM.

For `CCn1ncc(-c2nc3c(N[C@H]4CCN(C(=O)C5CCOC(C)(C)C5)C4)ncnc3n2C)c1C` (stereo partly drawn) [Compound 2-6, N-{(3S)-1-[(2,2-dimethyltetrahydro-2H-pyran-4-yl)carbonyl]pyrrolidin-3-yl}-8-(1-ethyl-5-methyl-1H-pyrazol-4-yl)-9-methyl-9H-purin-6-amine], the “Selectivity versus PI3Kalpha” value (PI3K-alpha) was >10 and the IC50 (PI3K-delta) was 1.6 nM.

For `CCn1ncc(-c2nc3c(N[C@H]4CCN(C(=O)C5CC5)C4)ncnc3n2C)c1C` [Compound 2-7, N-[(3S)-1-(cyclopropylcarbonyl)pyrrolidin-3-yl]-8-(1-ethyl-5-methyl-1H-pyrazol-4-yl)-9-methyl-9H-purin-6-amine], the “Selectivity versus PI3Kalpha” value (PI3K-alpha) was >10 and the IC50 (PI3K-delta) was 1.2 nM.

`CCC(=O)N1CC[C@H](N(C)c2ncnc3c2nc(-c2cnc(OC)c(C)c2)n3CC)C1` [Compound 2-8, (S)-1-(3-((9-ethyl-8-(6-methoxy-5-methylpyridin-3-yl)-9H-purin-6-yl)(methyl)amino)pyrrolidin-1-yl)propan-1-one] was tested, and the “Selectivity versus PI3Kalpha” value (PI3K-alpha) was >10 and the IC50 (PI3K-delta) was 2.2 nM.

For `CCC(=O)N1CC[C@H](Nc2ncnc3c2nc(-c2cnc(OC)c(C)c2)n3CC)C1` [Compound 2-9, (S)-1-(3-((9-ethyl-8-(6-methoxy-5-methylpyridin-3-yl)-9H-purin-6-yl)amino)pyrrolidin-1-yl)propan-1-one], the “Selectivity versus PI3Kalpha” value (PI3K-alpha) was >10 and the IC50 (PI3K-delta) was < 1 nM.

For `CCC(=O)N1CC[C@H](Nc2ncnc3c2nc(-c2cnc(C(C)(C)C)s2)n3CC)C1` [Compound 2-10, (S)-1-(3-((8-(2-(tert-butyl)thiazol-5-yl)-9-ethyl-9H-purin-6-yl)amino)pyrrolidin-1-yl)propan-1-one], the “Selectivity versus PI3Kalpha” value (PI3K-alpha) was >10 and the IC50 (PI3K-delta) was < 1 nM.

`CCC(=O)N1CC[C@H](N(C)c2ncnc3c2nc(-c2cnc(C(C)(C)C)s2)n3CC)C1` [Compound 2-11, (S)-1-(3-((8-(2-(tert-butyl)thiazol-5-yl)-9-ethyl-9H-purin-6-yl)(methyl)amino)pyrrolidin-1-yl)propan-1-one] was tested, and the “Selectivity versus PI3Kalpha” value (PI3K-alpha) was >10 and the IC50 (PI3K-delta) was 3.6 nM.

Reference: patent US9938281B2 (Merck Sharp & Dohme Corp., priority 2012, dated 2018)
